In patent US6825170B2, “6-O-acyl ketolide antibacterials” (Ortho-McNeil Pharmaceutical, Inc., priority 2001, dated 2004):
In brackets after ≈: the same amount, converted by molar mass.

Key:
Assay in all cases: MIC, microdilution broth method (NCCLS)
Assay type in all cases: cell-based
Conditions in all cases: 35° C., 16-20 hours
[1] = test system: H. influenzae ATCC49247
Description: (§1) Minimal inhibitory concentration (MIC) has been an indicator of in vitro antibacterial activity widely used in the art. The in vitro antimicrobial activity of the compounds was determined by the microdilution broth method following the test method from the National Committee for Clinical Laboratory Standards (NCCLS). This method is described in the NCCLS Document M7-A4, Vol.17, No.2, “Methods for Dilution Antimicrobial Susceptibility Test for Bacteria that Grow Aerobically—Fourth Edition”, which is incorporated herein by reference.
(§2) In this method two-fold serial dilutions of drug in cation adjusted Mueller-Hinton broth are added to wells in microdilution trays. The test organisms are prepared by adjusting the turbidity of actively growing broth cultures so that the final concentration of test organism after it is added to the wells is approximately 5×10^4 CFU/well.
(§3) Following inoculation of the microdilution trays, the trays are incubated at 35° C. for 16-20 hours and then read. […] The amount of growth in the wells containing the test compound is compared with the amount of growth in the growth-control wells (no test compound) used in each tray. As set forth in Table 1, compounds of the present invention were tested against a variety of Gram positive and Gram negative pathogenic bacteria resulting in a range of activities depending on the organism tested.

[2] = test system: E. faecalis ATCC29212
Description: as §1, §2, §3

[3] = test system: S. pneumoniae ATCC49619
Description: as §1, §2, §3

[4] = test system: S. aureus ATCC29213
Description: as §1, §2, §3

Row | Structure (SMILES) | MIC (E: H. influenzae ATCC49247) [1] [µg/mL] | MIC (C: E. faecalis ATCC29212) [2] [µg/mL] | MIC (D: S. pneumoniae ATCC49619) [3] | MIC (B: S. aureus ATCC29213) [4] [µg/mL]
1 | CCC1OC(=O)C(C)C(=O)C(C)C(OC2OC(C)CC(N(C)C)C2O)C(C)(OC(=O)OCC=C(F)c2ccc(-c3ncccn3)cc2)CC(C)C(=O)C(C)C2NC(=O)OC12C (stereo not shown) [Compound 224] | 2 (≈ 2.34 µM) | 0.06 (≈ 0.0702 µM) | ≦0.015 μg/mL | 0.12 (≈ 0.14 µM)
2 | CCC1OC(=O)C(C)C(=O)C(C)C(OC2OC(C)CC(N(C)C)C2O)C(C)(OC(=O)OCCCCc2ccc(-c3ncccn3)cc2)CC(C)C(=O)C(C)C2NC(=O)OC12C (stereo not shown) [Compound 286] | 4 (≈ 4.69 µM) | 0.25 (≈ 0.293 µM) | 0.06 µg/mL (≈ 0.0703 µM) | 0.25 (≈ 0.293 µM)
3 | CCC1OC(=O)C(C)C(=O)C(C)C(OC2OC(C)CC(N(C)C)C2O)C(C)(OC(=O)NOCc2ccc(-c3cnccn3)cc2)CC(C)C(=O)C(C)C2NC(=O)OC12C (stereo not shown) [Compound 601] | 2 (≈ 2.42 µM) | 0.12 (≈ 0.145 µM) | 0.03 µg/mL (≈ 0.0363 µM) | 0.25 (≈ 0.303 µM)
4 | CCC1OC(=O)C(C)C(=O)C(C)C(OC2OC(C)CC(N(C)C)C2O)C(C)(OC(=O)NOCC#Cc2ccc(-c3cnccn3)cc2)CC(C)C(=O)C(C)C2NC(=O)OC12C (stereo not shown) [Compound 603] | 2 (≈ 2.35 µM) | 0.12 (≈ 0.141 µM) | 0.03 µg/mL (≈ 0.0353 µM) | 0.25 (≈ 0.294 µM)
5 | CC[C@H]1OC(=O)[C@@](C)(F)C(=O)[C@H](C)[C@@H](O[C@@H]2O[C@H](C)C[C@H](N(C)C)[C@H]2O)[C@](C)(OC(=O)NOC/C=C/c2ccc(-c3ncccn3)cc2)C[C@@H](C)C(=O)[C@H](C)[C@H]2NC(=O)O[C@@]21C [Compound 622] | 4 (≈ 4.6 µM) | 0.25 (≈ 0.287 µM) | 0.03 µg/mL (≈ 0.0345 µM) | 0.25 (≈ 0.287 µM)
6 | CC[C@H]1OC(=O)[C@H](C)C(=O)[C@H](C)[C@@H](O[C@@H]2O[C@H](C)C[C@H](N(C)C)[C@H]2O)[C@](C)(OC(=O)NNS(=O)(=O)c2ccc(-n3cccn3)cc2)C[C@@H](C)C(=O)[C@H](C)[C@H]2NC(=O)O[C@@]21C [Compound 811] | 4 (≈ 4.63 µM) | 0.5 (≈ 0.579 µM) | 0.06 µg/mL (≈ 0.0695 µM) | 2 (≈ 2.32 µM)
7 | CC[C@H]1OC(=O)[C@H](C)C(=O)[C@H](C)[C@@H](O[C@@H]2O[C@H](C)C[C@H](N(C)C)[C@H]2O)[C@](C)(OC(=O)NNC(C)=O)C[C@@H](C)C(=O)[C@H](C)[C@H]2NC(=O)O[C@@]21C [Compound 812] | >16 | 4 (≈ 5.72 µM) | 2 µg/mL (≈ 2.86 µM) | >16
8 | CC[C@H]1OC(=O)[C@H](C)C(=O)[C@H](C)[C@@H](O[C@@H]2O[C@H](C)C[C@H](N(C)C)[C@H]2O)[C@](C)(OC(=O)NNC(=O)OCc2ccccc2)C[C@@H](C)C(=O)[C@H](C)[C@H]2NC(=O)O[C@@]21C [Compound 814] | 8 (≈ 10.1 µM) | 0.5 (≈ 0.632 µM) | 0.12 µg/mL (≈ 0.152 µM) | 8 (≈ 10.1 µM)
9 | CC[C@H]1OC(=O)[C@H](C)C(=O)[C@H](C)[C@@H](O[C@@H]2O[C@H](C)C[C@H](N(C)C)[C@H]2O)[C@](C)(OC(=O)NNC(=O)N(C)c2ccccc2)C[C@@H](C)C(=O)[C@H](C)[C@H]2NC(=O)O[C@@]21C [Compound 815] | 16 (≈ 20.3 µM) | 1 (≈ 1.27 µM) | 0.25 µg/mL (≈ 0.316 µM) | 4 (≈ 5.06 µM)
10 | CC[C@H]1OC(=O)[C@H](C)C(=O)[C@H](C)[C@@H](O[C@@H]2O[C@H](C)C[C@H](N(C)C)[C@H]2O)[C@](C)(OC(=O)NN2CCCCC2)C[C@@H](C)C(=O)[C@H](C)[C@H]2NC(=O)O[C@@]21C [Compound 816] | 16 (≈ 22.1 µM) | 1 (≈ 1.38 µM) | 0.5 µg/mL (≈ 0.69 µM) | 16 (≈ 22.1 µM)
11 | CC[C@H]1OC(=O)[C@H](C)C(=O)[C@H](C)[C@@H](O[C@@H]2O[C@H](C)C[C@H](N(C)C)[C@H]2O)[C@](C)(OC(=O)N(C)NCc2ccc(-c3cnccn3)cc2)C[C@@H](C)C(=O)[C@H](C)[C@H]2NC(=O)O[C@@]21C [Compound 817] | 8 (≈ 9.54 µM) | 0.25 (≈ 0.298 µM) | 0.06 µg/mL (≈ 0.0715 µM) | 2 (≈ 2.38 µM)
12 | CC[C@H]1OC(=O)[C@H](C)C(=O)[C@H](C)[C@@H](O[C@@H]2O[C@H](C)C[C@H](N(C)C)[C@H]2O)[C@](C)(OC(=O)N(C)N(C)Cc2ccc(-c3cnccn3)cc2)C[C@@H](C)C(=O)[C@H](C)[C@H]2NC(=O)O[C@@]21C [Compound 819] | >16 | 1 (≈ 1.17 µM) | 0.25 µg/mL (≈ 0.293 µM) | 16 (≈ 18.8 µM)
13 | CC[C@H]1OC(=O)[C@H](C)C(=O)[C@H](C)[C@@H](O[C@@H]2O[C@H](C)C[C@H](N(C)C)[C@H]2O)[C@](C)(OC(=O)N(C)NCCc2ccc(-c3cnccn3)cc2)C[C@@H](C)C(=O)[C@H](C)[C@H]2NC(=O)O[C@@]21C [Compound 820] | 8 (≈ 9.38 µM) | 0.25 (≈ 0.293 µM) | 0.06 µg/mL (≈ 0.0703 µM) | 1 (≈ 1.17 µM)
14 | CC[C@H]1OC(=O)[C@H](C)C(=O)[C@H](C)[C@@H](O[C@@H]2O[C@H](C)C[C@H](N(C)C)[C@H]2O)[C@](C)(OC(=O)NN=Cc2ccc(-c3ncccn3)cc2)C[C@@H](C)C(=O)[C@H](C)[C@H]2NC(=O)O[C@@]21C [Compound 825] | 16 (≈ 19.4 µM) | 0.5 (≈ 0.608 µM) | 0.12 µg/mL (≈ 0.146 µM) | 4 (≈ 4.86 µM)

The next lines start with the values.

Row | MIC (E: H. influenzae ATCC49247) [1] [µg/mL] | MIC (C: E. faecalis ATCC29212) [2] [µg/mL] | MIC (D: S. pneumoniae ATCC49619) [3] | MIC (B: S. aureus ATCC29213) [4] [µg/mL] | Structure (SMILES)
15 | 1 (≈ 1.22 µM) | 0.06 (≈ 0.0729 µM) | 0.03 µg/mL (≈ 0.0365 µM) | 0.25 (≈ 0.304 µM) | CC[C@H]1OC(=O)[C@H](C)C(=O)[C@H](C)[C@@H](O[C@@H]2O[C@H](C)C[C@H](N(C)C)[C@H]2O)[C@](C)(OC(=O)NOCC#Cc2cnc3ccccc3c2)C[C@@H](C)C(=O)[C@H](C)[C@H]2NC(=O)O[C@@]21C [Compound 618]
16 | 4 (≈ 4.76 µM) | 0.12 (≈ 0.143 µM) | 0.03 µg/mL (≈ 0.0357 µM) | 0.25 (≈ 0.297 µM) | CC[C@H]1OC(=O)[C@@](C)(F)C(=O)[C@H](C)[C@@H](O[C@@H]2O[C@H](C)C[C@H](N(C)C)[C@H]2O)[C@](C)(OC(=O)NOCC#Cc2cnc3ccccc3c2)C[C@@H](C)C(=O)[C@H](C)[C@H]2NC(=O)O[C@@]21C [Compound 623]
17 | 2 (≈ 2.47 µM) | 0.5 (≈ 0.617 µM) | 0.03 µg/mL (≈ 0.037 µM) | 1 (≈ 1.23 µM) | CC[C@H]1OC(=O)[C@H](C)C(=O)[C@H](C)[C@@H](O[C@@H]2O[C@H](C)C[C@H](N(C)C)[C@H]2O)[C@](C)(OC(=O)NNS(=O)(=O)c2ccc(C)cc2)C[C@@H](C)C(=O)[C@H](C)[C@H]2NC(=O)O[C@@]21C [Compound 809]
18 | 4 (≈ 4.69 µM) | 0.5 (≈ 0.586 µM) | 0.06 µg/mL (≈ 0.0703 µM) | 2 (≈ 2.34 µM) | CC[C@H]1OC(=O)[C@H](C)C(=O)[C@H](C)[C@@H](O[C@@H]2O[C@H](C)C[C@H](N(C)C)[C@H]2O)[C@](C)(OC(=O)NN(C(C)=O)S(=O)(=O)c2ccc(C)cc2)C[C@@H](C)C(=O)[C@H](C)[C@H]2NC(=O)O[C@@]21C [Compound 810]
19 | 16 (≈ 21 µM) | 1 (≈ 1.31 µM) | 0.25 µg/mL (≈ 0.329 µM) | 16 (≈ 21 µM) | CC[C@H]1OC(=O)[C@H](C)C(=O)[C@H](C)[C@@H](O[C@@H]2O[C@H](C)C[C@H](N(C)C)[C@H]2O)[C@](C)(OC(=O)NNC(=O)c2ccccc2)C[C@@H](C)C(=O)[C@H](C)[C@H]2NC(=O)O[C@@]21C [Compound 813]
20 | 8 (≈ 9.55 µM) | 0.25 (≈ 0.298 µM) | 0.06 µg/mL (≈ 0.0716 µM) | 4 (≈ 4.77 µM) | CC[C@H]1OC(=O)[C@H](C)C(=O)[C@H](C)[C@@H](O[C@@H]2O[C@H](C)C[C@H](N(C)C)[C@H]2O)[C@](C)(OC(=O)N(C)NCc2ccc(-c3ccccn3)cc2)C[C@@H](C)C(=O)[C@H](C)[C@H]2NC(=O)O[C@@]21C [Compound 818]
21 | 16 (≈ 18.5 µM) | 0.5 (≈ 0.577 µM) | 0.12 µg/mL (≈ 0.138 µM) | 2 (≈ 2.31 µM) | CC[C@H]1OC(=O)[C@H](C)C(=O)[C@H](C)[C@@H](O[C@@H]2O[C@H](C)C[C@H](N(C)C)[C@H]2O)[C@](C)(OC(=O)N(C)N(C)CCc2ccc(-c3cnccn3)cc2)C[C@@H](C)C(=O)[C@H](C)[C@H]2NC(=O)O[C@@]21C [Compound 821]
22 | 16 (≈ 18.6 µM) | 1 (≈ 1.16 µM) | 0.12 µg/mL (≈ 0.139 µM) | 2 (≈ 2.32 µM) | CC[C@H]1OC(=O)[C@H](C)C(=O)[C@H](C)[C@@H](O[C@@H]2O[C@H](C)C[C@H](N(C)C)[C@H]2O)[C@](C)(OC(=O)Nn2ccc(-c3ccc(-c4ncccn4)cc3)c2)C[C@@H](C)C(=O)[C@H](C)[C@H]2NC(=O)O[C@@]21C [Compound 824]
